Patent US8779158B2, “Trisubstituted pyrazoles as acetylcholine receptor modulators” (Janssen Pharmaceutica NV, priority 2008, dated 2014)

What was measured:
[1] = molecular target: T1, hα7-wt nAChR (Homo sapiens, UniProt P36544); assay: Ca2+ flux imaging (FDSS) (Protocol B), potentiation of the choline response; type: cell-based; settings: Ca2+ assay as described in D.1; for EC50: "<5" = activity did not reach a top plateau at maximal concentration; for Emax: read-out: % Efficacy
T1 construct: expressed in transfected cells
T1 sequence (P36544 23-502): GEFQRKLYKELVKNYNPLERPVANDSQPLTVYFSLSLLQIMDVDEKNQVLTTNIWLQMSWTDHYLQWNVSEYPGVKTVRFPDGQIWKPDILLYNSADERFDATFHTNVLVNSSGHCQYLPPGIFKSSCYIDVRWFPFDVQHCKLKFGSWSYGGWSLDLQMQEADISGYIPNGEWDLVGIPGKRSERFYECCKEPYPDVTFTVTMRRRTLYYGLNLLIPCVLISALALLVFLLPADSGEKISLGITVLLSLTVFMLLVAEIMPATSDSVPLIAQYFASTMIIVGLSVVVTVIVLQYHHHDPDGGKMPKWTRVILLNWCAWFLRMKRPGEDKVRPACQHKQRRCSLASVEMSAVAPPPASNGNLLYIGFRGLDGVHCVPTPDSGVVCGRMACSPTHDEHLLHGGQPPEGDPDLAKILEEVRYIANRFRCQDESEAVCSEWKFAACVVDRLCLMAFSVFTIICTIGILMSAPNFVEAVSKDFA
Experimental: Ca^2+ Flux Imaging (FDSS) (Protocol B)
• Hanks buffered saline solution (HBSS, Invitrogen, Belgium), supplemented with 10 mM HEPES (Invitrogen, Belgium), CaCl2 to a final concentration of 5 mM, 0.1% Bovine serum albumin (Sigma-Aldrich NV, Belgium). b) Calcium-Sensitive Dye—Fluo-4AM • Fluo-4AM (Molecular Probes, USA) was dissolved in DMSO containing 10% Pluronic acid (Molecular Probes, USA) to give a stock solution which was diluted in assay buffer supplemented with 5 mM probenicid (Sigma, Aldrich NV, Belgium) to give a final concentration of 2 μM. c) 384-Well Plates • Black 384 well plate black/clear plates, PDL pre-coated (Corning, Incorporated, USA) d) Calcium Flux Measurement • A Functional drug screening system (FDSS, Hamamatsu) was used to measure intracellular free-calcium flux signals. Method
Monolayers of hα7-wt nAChR-expressing cells were grown in multi-well plates, in particular black-sided, transparent bottomed 384 well plates coated with poly-D-lysine for 24 hours prior to loading with a fluorescent calcium indicator, in a particular embodiment loading with fluo-4AM for up to 120 minutes.
PAM activity was detected in real time by applying the compounds to be tested to the loaded cells along with a α7 nicotinic receptor agonist during constant monitoring of cellular fluorescence in a FDSS. Compounds giving peak fluorescent responses greater than the response due to agonist alone, were considered to be α7 nAChR PAM's. In a particular embodiment, the α7 nicotinic receptor agonist was choline, a more particular embodiment choline applied at a sub-maximal concentration of 100 μM. In a further setting of the present invention the compounds to be tested were applied prior to the α7 nicotinic receptor agonist, in a particular embodiment up to 10 minutes prior to the agonist.
A control response to choline was calculated on each plate from the difference in peak in fluorescence in wells receiving either choline or assay buffer alone. Compounds of the present invention were tested at a concentration range from 0.01 μM to 30 μM. Compounds were considered to have an interesting activity when they potentiated the choline signal at least with 200% when tested at a concentration of 30 μM (the efficacy of 100 μM choline was defined as 100% in the absence of a PAM). An EC50 (or pEC50) was determined as a concentration relating to half the maximal effect, when a clear sigmoidal curve with top plateau was obtained.

[2] = molecular target: T2, hα7-wt nAChR-expressing GH4C1 cells (Homo sapiens, UniProt P36544); assay: Patch-clamp current recording (whole-cell voltage clamp), potentiation of the choline current and PAM type; type: cell-based; parameters: key: Type 0 compounds minimally enhance the effect size of the current elicited by 1 mM choline.; Type 1 compounds enhance the effect size of the current elicited by 1 mM choline but minimally alter the kinetics of the receptor.; Type 2 compounds enhance the effect size of the current elicited by 1 mM choline while reducing the rate and/or the extent of desensitization.; Type 3 compounds enhance the effect size of the current elicited by 1 mM choline. When tested at higher concentrations up to 10 μM they completely inhibit desensitization, in particular a 1 mM choline application of 250 milliseconds.; Type 4 compounds allow for an initial desensitization of the receptor followed by a re-opening of the receptor during agonist application; settings: 1 mM choline
T2 construct: expressed in transfected cells
T2 sequence (P36544 23-502): as above
Experimental: The compounds of the present invention are classified as type 1-4, based on qualitative kinetic properties, as determined by whole-cell voltage-clamp recordings. This classification is based on the effect of an α7 PAM compound, as described hereinbefore, on the signal elicited by an agonist application. In particular, said agonist is choline at a concentration of 1 mM. In a preferred experimental setting, said α7 PAM compound and choline are simultaneously applied to the cell, as described hereinafter. Desensitization is defined as the closure of the receptor upon activation during the application of the agonist in whole-cell voltage-clamp electrophysiology measurements seen as the reduction of the […] current after initial activation by the agonist.
The definition of the PAM types 1-4 is described hereinafter: • Type 0 compounds minimally enhance the effect size of the current elicited by 1 mM choline. • Type 1 compounds enhance the effect size of the current elicited by 1 mM choline but minimally alter the kinetics of the receptor. In particular, the rate and the extent of desensitization, elicited by the agonist, is not affected. The compound-modulated response to 1 mM choline, therefore, is a close to linear scaling of the 1 mM choline response in absence of the α7 PAM compound. • Type 2 compounds enhance the effect size of the current elicited by 1 mM choline while reducing the rate and/or the extent of desensitization. • Type 3 compounds enhance the effect size of the current elicited by 1 mM choline. […] At low-potency concentrations of the α7 PAM compound, the agonist-induced activation, which is followed by desensitization, can still be separated from the compound-induced re-opening as an initial inward current-maximum. At higher potency concentrations of the α7 PAM compound, the re-opening occurs faster than the closure due to desensitization so that the initial current-maximum disappears.
A compound was considered to have interesting PAM-like activity when the potentiation of the peak current was at least 200% compared to the control choline response (=100%). Such compounds are classified as belonging to a particular PAM type in the Experimental Part. Compounds not meeting the condition are not classified as belonging to a particular PAM-type.
The compounds also have a potentiating effect on the response to choline when measured by whole-cell patch clamp electrophysiology in GH4C1 cells stably over-expressing the human wild-type α7 receptor.
Patch-Clamp Current Recording
Patch-clamp recording from mammalian cells has provided a powerful means of assessing the function of membrane-bound proteins thought to be subunits of ligand-gated ion channels. Activation of such proteins by endogenous or exogenous ligands cause opening of a pore associated with the receptor through which ions flow down their electrochemical gradient. In the case of the hα7-wt nAChR-expressing GH4C1 recombinant cell line the preferential permeability to calcium of this receptor means that calcium flows into the cell upon activation by ACh, choline and other nicotinic ligands giving rise to a calcium current. Since this receptor rapidly desensitizes in the presence of agonist it is important an application system is used which is capable of very rapid switching of solutions (<100 ms) to prevent partial or full desensitisation of receptor responses coincident with the time of agonist application. Consequently, a second convenient technique to assess the enhancement of nicotinic efficacy is patch-clamp recording from hα7-wt nAChR-expressing GH4C1 cells coupled with a rapid-application system.
• The external recording solution consisted of 152 mM NaCl, 5 mM KCl, 1 mM MgCl2, 1 mM Calcium, 10 mM HEPES; pH 7.3. […]

| Structure (SMILES) | EC50 [1] [nM] | PAM type [2] | Emax [1] [%] |
| --- | --- | --- | --- |
| CC[C@H](O)Cn1nc(Nc2ccc(F)c(C(F)(F)F)c2)cc1-c1ccnc(C)c1 [compound 46] | 891 | 0 | – |
| Cc1cc(-c2cc(Nc3ccc(F)c(F)c3)nn2CCC(=O)N(C)C)ccn1 [compound 40] | 1000 | 2 | – |
| Cc1cc(-c2cc(Nc3ccc(F)c(F)c3)nn2CC(=O)NCC2CC2)cc(C)n1 [compound 57] | 209 | 2 | – |
| C[C@H](O)Cn1nc(Nc2cc(F)c(F)c(F)c2)cc1-c1ccc2c(c1)OCCO2 [compound 85] | 1100 | 0 | 400 |
| CCNC(=O)Cn1nc(Nc2cccc(Cl)c2F)cc1-c1ccnc(C)c1 [compound 137] | 631 | 2 | 946 |
| CCNC(=O)Cn1nc(Nc2cc(OC)cc(C(F)(F)F)c2)cc1-c1cc(C)nc(C)c1 [compound 140] | 1000 | 2 | – |
| CNC(=O)Cn1nc(Nc2ccc3c(c2)OC(F)(F)O3)cc1-c1cc(C)nc(C)c1 [compound 130] | 813 | 2 | 632 |
| Cc1ccc(-c2cc(Nc3ccc(F)c(C(F)(F)F)c3)nn2CCC(=O)N(C)C)cn1 [compound 28] | 776 | 4 | – |
| Cc1cc(-c2cc(Nc3cccc(OC(F)(F)F)c3)nn2CCC(=O)N(C)C)cc(C)n1 [compound 165] | 363 | 1 | 738 |
| Cc1ccnc(-c2cc(Nc3ccc(F)c(C(F)(F)F)c3)nn2CCC(=O)N(C)C)c1 [compound 23] | 631 | 2 | – |
| CC[C@H](O)Cn1nc(Nc2ccc(F)c(F)c2)cc1-c1cc(C)nc(C)c1 [compound 59] | 617 | 1 | – |
| Cc1cc(-c2cc(Nc3ccc(F)c(F)c3F)nn2CCC(=O)N(C)C)ccn1 [compound 166] | 295 | 2 | 856 |
| CNC(=O)Cn1nc(Nc2ccc3c(c2)OC(F)(F)O3)cc1-c1ccncc1 [compound 86] | 2290 | 3 | – |
| CC[C@H](O)Cn1nc(Nc2cccc(Cl)c2)cc1-c1ccnc(COC)c1 [compound 136] | 646 | 1 | – |
| COc1cc(Cl)cc(Nc2cc(-c3ccnc(C)c3)n(CC(=O)NC3CC3)n2)c1 [compound 110] | 1780 | 2 | – |
| COCc1cc(-c2cc(Nc3ccc(F)c(F)c3)nn2CCC(=O)N(C)C)ccn1 [compound 70] | 1350 | 3 | – |
| COc1cc(Nc2cc(-c3ccnc(C)c3)n(CC(=O)NC3CC3)n2)cc(C(F)(F)F)c1 [compound 104] | 2690 | 3 | – |
| CNC(=O)Cn1nc(Nc2ccc(F)c(F)c2)cc1-c1cc(C)nc(C)c1 [compound 55] | 1700 | 2 | – |

| Structure (SMILES) | EC50 [1] [nM] | PAM type [2] | Emax [1] [%] |
| --- | --- | --- | --- |
| CC[C@H](O)Cn1nc(Nc2cccc(Cl)c2F)cc1-c1ccnc(C)c1 [compound 118] | 1170 | 0 | 633 |
| CNC(=O)Cn1nc(Nc2ccc3c(c2)OC(F)(F)O3)cc1-c1ccnc(COC)c1 [compound 112] | 1510 | 4 | – |
| CCNC(=O)Cn1nc(Nc2ccc(F)c(F)c2)cc1-c1cc(C)nc(C)c1 [compound 151] | 550 | 2 | 749 |
| COc1cc(Nc2cc(-c3ccnc(C)c3)n(CCC(=O)N(C)C)n2)cc(C(F)(F)F)c1 [compound 143] | 575 | 4 | – |
| COc1cccc(-c2cc(Nc3ccc(F)c(F)c3)nn2CCC(=O)N(C)C)c1 [compound 103] | 245 | 2 | – |
| CCNc1cc(-c2cc(Nc3ccc(F)c(F)c3F)nn2C[C@@H](O)CC)ccn1 [compound 135] | 759 | 1 | – |
| CCNC(=O)Cn1nc(Nc2ccc(F)c(C(F)(F)F)c2)cc1-c1cc(C)nc(C)c1 [compound 152] | 468 | 2 | 856 |
| Cc1cc(-c2cc(Nc3ccc(F)c(C(F)(F)F)c3)nn2C[C@H](C)O)ccn1 [compound 43] | 1450 | 1 | 700 |
| Cc1cc(-c2cc(Nc3cccc(Cl)c3F)nn2CC(=O)NCC2CC2)ccn1 [compound 170] | 186 | 2 | 783 |
| CCNC(=O)Cn1nc(Nc2cc(Cl)cc(OC)c2)cc1-c1ccnc(C)c1 [compound 108] | 1860 | 2 | – |
| CNC(=O)Cn1nc(Nc2cccc(C(F)(F)F)c2)cc1-c1ccc2c(c1)OCCO2 [compound 76] | 347 | 4 | – |
| CCNC(=O)Cn1nc(Nc2ccc(F)c(F)c2F)cc1-c1ccnc(C)c1 [compound 125] | 933 | 2 | 972 |
| CCNC(=O)Cn1nc(Nc2ccc3c(c2)OC(F)(F)O3)cc1-c1ccnc(C)c1 [compound 93] | 1000 | 2 | – |
| CC[C@H](O)Cn1nc(Nc2ccc(F)c(F)c2F)cc1-c1ccnc(COC)c1 [compound 121] | 1070 | 2 | – |
| CC[C@H](O)Cn1nc(Nc2cccc(Cl)c2)cc1-c1ccnc(C)c1 [compound 185, (alphaS)-3-[(3-chlorophenyl)amino]-alpha-ethyl-5-[2-methyl-4-pyridinyl]-1H-pyrazole-1-ethanol] | 1580 | 1 | – |
| COc1cc(Nc2cc(-c3ccnc(C)c3)n(CC(=O)NCC3CC3)n2)cc(C(F)(F)F)c1 [compound 131] | 813 | 2 | – |
| CNC(=O)Cn1nc(Nc2cccc(Cl)c2F)cc1-c1ccnc(COC)c1 [compound 106] | 1950 | 2 | – |
| Cc1cc(-c2cc(Nc3ccc(F)c(F)c3)nn2CCC(=O)N(C)C)cc(C)n1 [compound 119] | 1100 | 2 | – |
